Starred links: 1 amine or outer side, 2 acyl side, 3 side chain; linkers in the order of their positions; H or OH if unused. Positions of bridges follow the written chain, without caps; N, C: chain ends. Non-standard residues stand in square brackets, D forms with d. Chains are numbered I, II in the order given. X2 = O=C(CCOCCN(CCOCCC(=O)NCCOCCOCCOCCOCCOCCOCCOCCOCCOCCOCCn1cc(CCC(=O)[*:2])nn1)CCOCCC(=O)NCCOCCOCCOCCOCCOCCOCCOCCOCCOCCOCCn1cc(CCC(=O)[*:3])nn1)NCCOCCOCCOCCOCCOCCOCCOCCOCCOCCOCCn1cc(CCC(=O)[*:1])nn1; X1 = C(c1nc(C[*:2])nc(C[*:3])n1)[*:1]; tBuAla = CC(C)(C)C[C@H](N)C(=O)O; Agb = N=C(N)NCC[C@H](N)C(=O)O
System: SARS-CoV-2 pseudotyped HIV-1 virions, D614G

## I: Ac-CPYVAG[Agb][dA]TCL[tBuAla]CK-NH2 / II: Ac-CPYVAG[Agb][dA]TCL[tBuAla]CK-NH2 / III: Ac-CPYVAG[Agb][dA]TCL[tBuAla]CK-NH2 (linker I:1-I:10-I:13, II:1-II:10-II:13, III:1-III:10-III:13 via X1; linker I:14-II:14-III:14 via X2) [BCY17021]
  IC50: 0.5 nM
